The results in this text go back to patent US11970463B2, “Compounds and their use” (ASTRAZENECA AB, priority 2021, dated 2024).

In series [1] the target is hERG (Homo sapiens (Human), UniProt Q12809). Put plainly: hERG assay (Test D), SyncroPatch 384PE patch clamp, hERG-expressing CHO cells. In kind it is cell-based. Conditions: rt. In general terms: hERG is a cardiac potassium channel; its block is linked to QT prolongation.
Series [2] in a line: Solubility (Test E). In kind it is physicochemical.
Series [3] can be described thus: Solubility (Test F), McIlvaine buffer pH 6.5. In kind it is physicochemical. The following applies: 25 °C, pH 6.5, aqueous buffer, thermodynamic from solid, McIlvaine buffer pH 6.5, 25° C., 24 to 72 h, theoretical maximum 200 μM.
The test system of series [4] is IL-1β production. The series can be described thus: LPS/ATP test in mice, peritoneal IL-1β by ELISA. Format: in vivo, BALB/cAJcl mice. The following applies: Mus musculus, LPS/ATP i.p.; for inhibition at 1 mg/kg: 1 mg/kg orally; for inhibition at 3 mg/kg: 3 mg/kg orally. On the technique in general: An ELISA detects its analyte on a solid surface through an enzyme-linked reagent.

Series [5] concerns the target T1, Human NLRP3 (Homo sapiens (Human), UniProt Q96P20). The following applies: Test C IC50, IL-1β release, THP-1 cells, LPS 2 μg/mL 24 h, BzATP 1 mM.
The target in series [6] is T1, Human NLRP3.
Series [7] concerns the target T1, Human NLRP3. Put plainly: Human NLRP3 speck formation assay (Test A), nigericin triggered ASC-speck formation in ASC-GFP reporter monocytes.
[8] abbreviates: disodium hydrogenphosphate-citric acid (McIlvaine) buffer.

Values after ≈ are worked out from the molar mass of the structure shown. Read-outs that look alike come from different tables or passages of the source.

T1 sequence (Q96P20 whole entry): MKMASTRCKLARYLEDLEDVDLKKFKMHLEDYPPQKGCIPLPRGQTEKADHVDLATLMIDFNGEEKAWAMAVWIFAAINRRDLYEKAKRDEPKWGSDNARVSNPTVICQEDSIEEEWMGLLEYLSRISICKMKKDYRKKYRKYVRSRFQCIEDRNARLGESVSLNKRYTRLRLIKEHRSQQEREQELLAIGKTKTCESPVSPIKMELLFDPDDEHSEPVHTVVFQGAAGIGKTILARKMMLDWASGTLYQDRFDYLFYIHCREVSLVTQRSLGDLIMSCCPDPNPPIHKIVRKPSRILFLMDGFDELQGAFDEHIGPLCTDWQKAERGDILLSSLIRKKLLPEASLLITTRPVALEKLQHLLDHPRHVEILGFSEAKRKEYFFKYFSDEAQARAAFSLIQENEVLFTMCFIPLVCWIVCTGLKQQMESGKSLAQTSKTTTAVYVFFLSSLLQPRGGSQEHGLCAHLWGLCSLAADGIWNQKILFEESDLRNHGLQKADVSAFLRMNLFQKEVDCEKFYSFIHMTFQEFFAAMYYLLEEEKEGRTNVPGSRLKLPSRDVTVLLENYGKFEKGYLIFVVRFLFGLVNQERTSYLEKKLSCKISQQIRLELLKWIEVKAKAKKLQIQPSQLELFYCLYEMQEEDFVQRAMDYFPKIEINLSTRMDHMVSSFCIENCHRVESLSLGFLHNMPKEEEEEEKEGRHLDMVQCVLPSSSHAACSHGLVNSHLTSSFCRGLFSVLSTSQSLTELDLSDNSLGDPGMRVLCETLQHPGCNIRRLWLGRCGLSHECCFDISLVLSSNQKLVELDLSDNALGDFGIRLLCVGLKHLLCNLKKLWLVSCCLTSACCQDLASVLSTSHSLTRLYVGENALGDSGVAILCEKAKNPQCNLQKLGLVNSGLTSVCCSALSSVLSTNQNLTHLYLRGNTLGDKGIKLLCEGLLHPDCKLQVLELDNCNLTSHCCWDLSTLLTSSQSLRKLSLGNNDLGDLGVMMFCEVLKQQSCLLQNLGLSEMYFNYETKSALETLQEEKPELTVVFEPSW
Sequence of hERG (Q12809 whole entry): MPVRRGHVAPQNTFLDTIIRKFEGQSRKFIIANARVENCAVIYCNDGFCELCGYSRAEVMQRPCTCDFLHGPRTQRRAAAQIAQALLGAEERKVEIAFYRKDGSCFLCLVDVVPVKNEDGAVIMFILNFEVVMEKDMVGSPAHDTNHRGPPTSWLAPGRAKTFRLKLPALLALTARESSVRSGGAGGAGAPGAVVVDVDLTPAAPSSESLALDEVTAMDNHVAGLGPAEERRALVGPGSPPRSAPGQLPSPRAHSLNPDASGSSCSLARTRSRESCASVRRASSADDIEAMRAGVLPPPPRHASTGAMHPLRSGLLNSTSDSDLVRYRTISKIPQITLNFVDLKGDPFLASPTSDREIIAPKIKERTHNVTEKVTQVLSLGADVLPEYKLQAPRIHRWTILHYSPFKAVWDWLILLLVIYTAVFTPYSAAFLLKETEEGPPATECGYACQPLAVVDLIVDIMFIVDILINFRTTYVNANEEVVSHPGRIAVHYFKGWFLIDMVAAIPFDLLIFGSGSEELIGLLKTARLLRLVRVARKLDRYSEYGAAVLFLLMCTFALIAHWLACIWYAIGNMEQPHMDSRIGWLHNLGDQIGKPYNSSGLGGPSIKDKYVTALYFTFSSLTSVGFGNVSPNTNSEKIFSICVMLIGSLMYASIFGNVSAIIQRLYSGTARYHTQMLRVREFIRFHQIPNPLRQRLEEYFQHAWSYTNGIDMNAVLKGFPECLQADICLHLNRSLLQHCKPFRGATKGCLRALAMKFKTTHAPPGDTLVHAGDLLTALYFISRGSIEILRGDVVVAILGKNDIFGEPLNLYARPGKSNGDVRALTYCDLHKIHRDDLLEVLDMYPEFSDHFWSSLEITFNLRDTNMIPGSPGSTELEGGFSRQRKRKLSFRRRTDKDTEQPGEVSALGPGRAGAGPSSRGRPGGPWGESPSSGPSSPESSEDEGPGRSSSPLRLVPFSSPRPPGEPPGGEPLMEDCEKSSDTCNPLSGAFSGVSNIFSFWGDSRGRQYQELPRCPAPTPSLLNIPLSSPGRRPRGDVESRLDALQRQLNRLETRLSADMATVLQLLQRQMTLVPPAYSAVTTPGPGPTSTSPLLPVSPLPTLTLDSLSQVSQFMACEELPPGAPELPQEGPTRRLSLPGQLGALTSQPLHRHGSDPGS

Broadly, the IC50 is the concentration at which inhibition is half-maximal. A lower IC50 goes with higher potency. What is called solubility is how much of the substance goes into solution per volume. For orientation: inhibition means the change of the read-out against control, counted positive when it falls. High values mean a strong effect, low ones a weak effect. As usually defined, the EC50 is the midpoint of the concentration-response curve. Lower therefore signals greater potency. Regarding `OC[C@@H](O)CNc1nnc(-c2c(O)cc(C(F)(F)F)cc2F)c2ccccc12` [Example 7, (2S)-3-[[4-[2-fluoro-6-hydroxy-4-(trifluoromethyl)phenyl]phthalazin-1-yl]amino]propane-1,2-diol], the half-maximal inhibitory concentration (IC50) in series [1] is over 40000 nM; in series [5], 22 nM; in series [6], 47 nM. Also, the solubility in series [2] is 582 µM (≈ 231 µg/mL); in series [3] (setting [8]), 70.3 µg/mL (≈ 177 µM). Moreover, in series [4], at 1 mg/kg the inhibition was 46%. Further, the inhibition at 3 mg/kg in series [4] was 95%. In series [7], this compound displayed an EC50 of 180 nM.
The compound `OC[C@@H](O)CNc1nnc(-c2c(O)cc(Cl)cc2F)c2ccccc12` [Example 9, (2S)-3-[[4-(4-chloro-2-fluoro-6-hydroxy-phenyl)phthalazin-1-yl]amino]propane-1,2-diol] showed a solubility in series [3] (setting [8]) of 67.3 µg/mL (≈ 185 µM). The compound also returned an inhibition at 3 mg/kg in series [4] of 77%. In series [5], this compound had a concentration for half-maximal inhibition (IC50) of 11 nM. The compound further showed a half-maximal effective concentration (EC50) in series [7] of 164 nM.
In the case of `Cc1ccc2c(-c3ccc(C(F)(F)F)cc3O)nnc(NC[C@H](O)CO)c2c1` [Example 14, (2S)-3-[[4-[2-hydroxy-4-(trifluoromethyl)phenyl]-7-methyl-phthalazin-1-yl]amino]propane-1,2-diol], the solubility in series [2] was 135 µM (≈ 53.1 µg/mL); in series [3] (setting [8]), 56.3 µg/mL (≈ 143 µM). The compound further showed an inhibition at 3 mg/kg in series [4] of 75%. In series [5], this compound returned a 50% inhibitory concentration (IC50) of 5 nM. In series [7], this compound had an EC50 of 18 nM.
On to `C[C@@]1(O)CC[C@@H](Nc2nnc(-c3ccc(C(F)(F)F)cc3O)c3ccncc23)C1` [Example 38, 2-[4-[[(1R,3R)-3-hydroxy-3-methyl-cyclopentyl]amino]pyrido[3,4-d]pyridazin-1-yl]-5-(trifluoromethyl)phenol], for which the IC50 in series [1] was over 40000 nM; in series [5] it was 9 nM; in series [6], 16 nM. For the same compound, the values for the solubility in series [2] and in series [3] (setting [8]) were 810 µM (≈ 328 µg/mL) and over 80.9 µg/mL, respectively. The compound also displayed an inhibition at 1 mg/kg in series [4] of 29%. In series [4], this compound came in with an inhibition at 3 mg/kg of 83%. In addition, the concentration giving a half-maximal response (EC50) in series [7] was 27 nM.
As for `C[C@]1(O)CC[C@@H](Nc2nnc(-c3ccc(C(F)(F)F)cc3O)c3ccncc23)C1` [Example 39, 2-[4-[[(1R,3S)-3-hydroxy-3-methyl-cyclopentyl]amino]pyrido[3,4-d]pyridazin-1-yl]-5-(trifluoromethyl)phenol], the solubility in series [2] is 48 µM (≈ 19.4 µg/mL); in series [3] (setting [8]) it was 10.2 µg/mL (≈ 25.2 µM). In series [4], the inhibition at 3 mg/kg turned out to be 58%. In addition, the IC50 in series [5] was 7 nM; in series [6] it was 18 nM. Also, the half-maximal effective concentration (EC50) in series [7] turned out to be 59 nM.
Take `Oc1cc(C(F)(F)F)ccc1-c1nnc(N[C@@H]2CCC[C@H](O)C2)c2cnccc12` [Example 41, 2-[4-[[(1R,3S)-3-hydroxycyclohexyl]amino]pyrido[3,4-d]pyridazin-1-yl]-5-(trifluoromethyl)phenol]: in series [3] (setting [8]), the solubility is 8.6 µg/mL (≈ 21.3 µM). In addition, in series [4], at 1 mg/kg the inhibition was 94% and the inhibition at 3 mg/kg was 99%.
`Oc1cc(C(F)(F)F)cc(F)c1-c1nnc(N[C@@H]2CCC[C@H](O)C2)c2cnccc12` [Example 45, 3-fluoro-2-[4-[[(1R,3S)-3-hydroxycyclohexyl]amino]pyrido[3,4-d]pyridazin-1-yl]-5-(trifluoromethyl)phenol]: the IC50 in series [1] is over 40000 nM; in series [5], 9 nM; in series [6], 25 nM. The results for the solubility in series [2] and in series [3] (setting [8]) were 121 µM (≈ 51.1 µg/mL) and 10.4 µg/mL (≈ 24.6 µM), respectively. The compound further yielded an inhibition at 3 mg/kg in series [4] of 82%. The compound further gave a concentration for a half-maximal effect (EC50) in series [7] of 44 nM.
For the compound `Oc1cc(Cl)cc(F)c1-c1nnc(N[C@@H]2CCC[C@H](O)C2)c2cnccc12` [Example 46, 5-chloro-3-fluoro-2-[4-[[(1R,3S)-3-hydroxycyclohexyl]amino]pyrido[3,4-d]pyridazin-1-yl]phenol], the IC50 in series [1] was over 40000 nM; in series [5], 3 nM. The solubility in series [2] is 941 µM (≈ 366 µg/mL); in series [3] (setting [8]) it was over 77.8 µg/mL. This compound returned an inhibition at 1 mg/kg in series [4] of 23%. The inhibition at 3 mg/kg in series [4] is 65%. For the same compound, the EC50 in series [7] worked out at 37 nM.
In series [3] (setting [8]), `Oc1cc(C(F)(F)F)c(F)cc1-c1nnc(N[C@@H]2CCC[C@H](O)C2)c2cnccc12` [Example 53, 4-fluoro-2-[4-[[(1R,3S)-3-hydroxycyclohexyl]amino]pyrido[3,4-d]pyridazin-1-yl]-5-(trifluoromethyl)phenol] came in with a solubility of 62.5 µg/mL (≈ 148 µM). For the same compound, in series [4], the inhibition at 3 mg/kg amounted to 65%. For the same compound, half-maximal inhibition in series [5] (IC50) required 7 nM.
The like results for `Oc1cc(C(F)(F)F)c(F)cc1-c1nnc(N[C@@H]2CCCC[C@H]2O)c2cnccc12` [Example 54, 4-fluoro-2-[4-[[(1R,2R)-2-hydroxycyclohexyl]amino]pyrido[3,4-d]pyridazin-1-yl]-5-(trifluoromethyl)phenol] were, in that order, 45.7 µg/mL (≈ 108 µM), 55% and 4 nM.
`Oc1cc(C(F)(F)F)cc(F)c1-c1nnc(N[C@@H]2CCCC[C@H]2O)c2cnccc12` [Example 55, 3-fluoro-2-[4-[[(1R,2R)-2-hydroxycyclohexyl]amino]pyrido[3,4-d]pyridazin-1-yl]-5-(trifluoromethyl)phenol]: the IC50 is over 40000 nM in series [1] and 6 nM in series [5]. For the same compound, the solubility in series [2] was determined as 529 µM (≈ 223 µg/mL); in series [3] (setting [8]), 8.8 µg/mL (≈ 20.8 µM). Further, in series [4], at 3 mg/kg the inhibition was 91%. The compound also registered a concentration for a half-maximal effect (EC50) in series [7] of 38 nM.
Regarding `Oc1cc(OC(F)(F)F)ccc1-c1nnc(N[C@@H]2CCCC[C@H]2O)c2cnccc12` [Example 56, 2-[4-[[(1R,2R)-2-hydroxycyclohexyl]amino]pyrido[3,4-d]pyridazin-1-yl]-5-(trifluoromethoxy)phenol], the figures for the 50% inhibitory concentration (IC50) in series [1], in series [5] and in series [6] were 19000 nM, 3 nM and 8 nM, respectively. Moreover, the solubility came out at 263 µM (≈ 111 µg/mL) in series [2] and 14.5 µg/mL (≈ 34.5 µM) in series [3] (setting [8]). Also, testing at 3 mg/kg in series [4] gave an inhibition of 98%. Further, it took 25 nM to reach a half-maximal effect in series [7] (EC50).
Turning to `Oc1cc(Cl)cc(F)c1-c1nnc(N[C@@H]2CCCC[C@H]2O)c2cnccc12` [Example 57, 5-chloro-3-fluoro-2-[4-[[(1R,2R)-2-hydroxycyclohexyl]amino]pyrido[3,4-d]pyridazin-1-yl]phenol], the IC50 was over 40000 nM in series [1] and 5 nM in series [5]. The results for the solubility in series [2] and in series [3] (setting [8]) were 596 µM (≈ 232 µg/mL) and 36.9 µg/mL (≈ 94.9 µM), respectively. The same compound registered an inhibition at 1 mg/kg in series [4] of 42%. The compound further yielded an inhibition at 3 mg/kg in series [4] of 87%. This compound also returned a 50% effective concentration (EC50) in series [7] of 17 nM.
Take `Oc1cc(C(F)(F)F)ccc1-c1nnc(N[C@@H]2CC[C@@H](O)C2)c2cnccc12` [Example 59, 2-(4-(((1R,3R)-3-hydroxycyclopentyl)amino)pyrido[3,4-d]pyridazin-1-yl)-5-(trifluoromethyl)phenol]: the IC50 in series [1] is over 40000 nM; in series [5], 5 nM; in series [6], 9 nM. Moreover, the solubility in series [2] is 47 µM (≈ 18.3 µg/mL); in series [3] (setting [8]), over 78.1 µg/mL. For the same compound, the inhibition at 1 mg/kg in series [4] is 44%. The compound further came in with an inhibition at 3 mg/kg in series [4] of 70%. In series [7], the half-maximal effective concentration (EC50) was 16 nM.
Turning to `Oc1cc(C(F)(F)F)ccc1-c1nnc(N[C@@H]2CC[C@H](O)C2)c2cnccc12` [Example 60, 2-(4-(((1R,3S)-3-hydroxycyclopentyl)amino)pyrido[3,4-d]pyridazin-1-yl)-5-(trifluoromethyl)phenol], the IC50 in series [1] was over 40000 nM; in series [5] it was under 3 nM; in series [6] it was 12 nM. Also, the solubility was found to be 26 µM (≈ 10.1 µg/mL) in series [2] and 10.3 µg/mL (≈ 26.4 µM) in series [3] (setting [8]). The inhibition at 1 mg/kg in series [4] was determined as 60%. This compound also displayed an inhibition at 3 mg/kg in series [4] of 97%. For the same compound, the concentration giving a half-maximal response (EC50) in series [7] was found to be 17 nM.
For the compound `C[C@@]1(O)CCC[C@@H](Nc2nnc(-c3ccc(C(F)(F)F)cc3O)c3ccncc23)C1` [Example 61, 2-[4-[[(1R,3R)-3-hydroxy-3-methyl-cyclohexyl]amino]pyrido[3,4-d]pyridazin-1-yl]-5-(trifluoromethyl)phenol], the IC50 came out at 34000 nM in series [1] and 7 nM in series [5]. The solubility turned out to be 389 µM (≈ 163 µg/mL) in series [2] and 64 µg/mL (≈ 153 µM) in series [3]. For the same compound, the inhibition at 3 mg/kg in series [4] came to 97%. Further, the response in series [7] was half-maximal at 29 nM (EC50).
For `C[C@]1(O)CCC[C@@H](Nc2nnc(-c3ccc(C(F)(F)F)cc3O)c3ccncc23)C1` [Example 62, 2-[4-[[(1R,3S)-3-hydroxy-3-methyl-cyclohexyl]amino]pyrido[3,4-d]pyridazin-1-yl]-5-(trifluoromethyl)phenol], the IC50 in series [1] was over 40000 nM; in series [5], 6 nM. Moreover, the values for the solubility in series [2] and in series [3] (setting [8]) were 120 µM (≈ 50.2 µg/mL) and 25.7 µg/mL (≈ 61.4 µM), respectively. The inhibition at 3 mg/kg in series [4] turned out to be 71%. Also, in series [7], the EC50 was 60 nM.
With `CC(C)(O)CNc1nnc(-c2c(O)cc(C(F)(F)F)cc2F)c2ccncc12` [Example 74, 3-fluoro-2-[4-[(2-hydroxy-2-methyl-propyl)amino]pyrido[3,4-d]pyridazin-1-yl]-5-(trifluoromethyl)phenol], the results for the solubility in series [2] and in series [3] (setting [8]) were 17 µM (≈ 6.74 µg/mL) and 12.1 µg/mL (≈ 30.5 µM), respectively. The inhibition at 3 mg/kg in series [4] worked out at 68%. 18 nM corresponded to half-maximal inhibition in series [5] (IC50). The compound further came in with an EC50 in series [7] of 204 nM.
